Experimental data reported in PMC5218480 (PLoS ONE, 2017).

Tested on: MV-4-11 cells
Experiment: Gene expression microarray analysis (Affymetrix PrimeView) and GSEA
Type: cell-based, human
Set-up: RFU PODN (11730768_x_at) / Fold change /veh PODN (11730768_x_at) / RFU LINC00158 (11744669_a_at) / Fold change /veh LINC00158 (11744669_a_at) / RFU DUSP10 (11751237_a_at) / Fold change /veh DUSP10 (11751237_a_at) / RFU ID3 (11757404_x_at) / Fold change /veh ID3 (11757404_x_at) / RFU PLEKHG5 (11737974_s_at) / Fold change /veh PLEKHG5 (11737974_s_at) / RFU LRRC4B (11730491_at) / Fold change /veh LRRC4B (11730491_at) / RFU GIMAP4 (11747438_a_at) / Fold change /veh GIMAP4 (11747438_a_at) / RFU KRT8 (11758183_x_at) / Fold change /veh KRT8 (11758183_x_at) / RFU CNN1 (11734310_a_at) / Fold change /veh CNN1 (11734310_a_at) / RFU VPS37D (11726825_at) / Fold change /veh VPS37D (11726825_at) / RFU C10orf10 (11716522_x_at) / Fold change /veh C10orf10 (11716522_x_at) / RFU KIR2DL2 /// KIR2DL4 /// KIR2DL5A /// KIR2DL5B /// KIR2DS1 /// KIR2DS2 /// KIR2DS3 /// KIR2DS4 /// KIR3DL3 /// KIR3DL3 /// KIR3DS1 (11738374_at) / Fold change /veh KIR2DL2 /// KIR2DL4 /// KIR2DL5A /// KIR2DL5B /// KIR2DS1 /// KIR2DS2 /// KIR2DS3 /// KIR2DS4 /// KIR3DL3 /// KIR3DL3 /// KIR3DS1 (11738374_at) / RFU C1QL1 (11718748_at) / Fold change /veh C1QL1 (11718748_at) / RFU TMPRSS4 (11747572_a_at) / Fold change /veh TMPRSS4 (11747572_a_at) / RFU HAMP (11756126_x_at) / Fold change /veh HAMP (11756126_x_at) / RFU RNFT2 (11725882_a_at) / Fold change /veh RNFT2 (11725882_a_at) / RFU NR4A2 (11747474_a_at) / Fold change /veh NR4A2 (11747474_a_at) / RFU ABCC12 (11746883_a_at) / Fold change /veh ABCC12 (11746883_a_at) / RFU TMEM136 (11760407_x_at) / Fold change /veh TMEM136 (11760407_x_at) / RFU CLDN22 /// WWC2 (11732394_at) / Fold change /veh CLDN22 /// WWC2 (11732394_at) / RFU HLA-DPB1 (11760878_x_at) / Fold change /veh HLA-DPB1 (11760878_x_at) / RFU SPINT1 (11716480_a_at) / Fold change /veh SPINT1 (11716480_a_at) / RFU GAP43 (11754022_s_at) / Fold change /veh GAP43 (11754022_s_at) / RFU A4GNT (11735810_at) / Fold change /veh A4GNT (11735810_at) / RFU PRB3 (11715151_x_at) / Fold change /veh PRB3 (11715151_x_at) / RFU TUBB4B (11761932_at) / Fold change /veh TUBB4B (11761932_at) / RFU CAPN14 (11732068_a_at) / Fold change /veh CAPN14 (11732068_a_at) / RFU TMCC2 (11721928_a_at) / Fold change /veh TMCC2 (11721928_a_at) / RFU IRGQ (11745062_a_at) / Fold change /veh IRGQ (11745062_a_at) / RFU FAM174B (11720279_a_at) / Fold change /veh FAM174B (11720279_a_at) / RFU TMPRSS4 (11748680_a_at) / Fold change /veh TMPRSS4 (11748680_a_at) / RFU FAM212B (11763350_a_at) / Fold change /veh FAM212B (11763350_a_at) / RFU PLEKHG5 (11743358_a_at) / Fold change /veh PLEKHG5 (11743358_a_at) / RFU ZSCAN30 (11745921_a_at) / Fold change /veh ZSCAN30 (11745921_a_at) / RFU CMKLR1 (11741424_a_at) / Fold change /veh CMKLR1 (11741424_a_at) / RFU LOC101060620 /// MAPK8IP1 (11723275_at) / Fold change /veh LOC101060620 /// MAPK8IP1 (11723275_at) / RFU SPTSSB (11747773_x_at) / Fold change /veh SPTSSB (11747773_x_at) / RFU PRSS12 (11739890_at) / Fold change /veh PRSS12 (11739890_at) / RFU BIN1 (11741810_x_at) / Fold change /veh BIN1 (11741810_x_at) / RFU WNT11 (11732464_a_at) / Fold change /veh WNT11 (11732464_a_at) / RFU C10orf10 (11716521_a_at) / Fold change /veh C10orf10 (11716521_a_at) / RFU C5orf56 (11738089_at) / Fold change /veh C5orf56 (11738089_at) / RFU CYB561 (11721691_x_at) / Fold change /veh CYB561 (11721691_x_at) / RFU ANKRD19P (11752326_a_at) / Fold change /veh ANKRD19P (11752326_a_at) / RFU OR2T12 /// OR2T33 /// OR2T8 (11738714_s_at) / Fold change /veh OR2T12 /// OR2T33 /// OR2T8 (11738714_s_at) / RFU VCAN (11748164_a_at) / Fold change /veh VCAN (11748164_a_at) / RFU JSRP1 (11732532_at) / Fold change /veh JSRP1 (11732532_at) / RFU KRTAP10-11 (11738290_x_at) / Fold change /veh KRTAP10-11 (11738290_x_at) / RFU MYO3A (11730013_a_at) / Fold change /veh MYO3A (11730013_a_at) / RFU EBF3 (11725865_a_at) / Fold change /veh EBF3 (11725865_a_at) / RFU CAMK2N1 (11719241_x_at) / Fold change /veh CAMK2N1 (11719241_x_at) / RFU C5orf56 (11738088_a_at) / Fold change /veh C5orf56 (11738088_a_at) / RFU OLFML3 (11715873_a_at) / Fold change /veh OLFML3 (11715873_a_at) / RFU LOC100653217 /// NTM (11731650_a_at) / Fold change /veh LOC100653217 /// NTM (11731650_a_at) / RFU MAPK11 (11762145_a_at) / Fold change /veh MAPK11 (11762145_a_at) / RFU FIZ1 (11724087_x_at) / Fold change /veh FIZ1 (11724087_x_at) / RFU OASL (11726364_x_at) / Fold change /veh OASL (11726364_x_at) / RFU SOX15 (11748057_x_at) / Fold change /veh SOX15 (11748057_x_at) / RFU CD79A (11719716_a_at) / Fold change /veh CD79A (11719716_a_at) / RFU HIST1H1D (11736915_at) / Fold change /veh HIST1H1D (11736915_at) / RFU CASKIN2 (11723855_a_at) / Fold change /veh CASKIN2 (11723855_a_at) / RFU LOC730098 (11760151_x_at) / Fold change /veh LOC730098 (11760151_x_at) / RFU OR4N2 (11742367_at) / Fold change /veh OR4N2 (11742367_at) / RFU PRRT2 (11749266_a_at) / Fold change /veh PRRT2 (11749266_a_at) / RFU SNX32 (11753110_a_at) / Fold change /veh SNX32 (11753110_a_at) / RFU CDHR5 (11726645_a_at) / Fold change /veh CDHR5 (11726645_a_at) / RFU RCAN1 (11760418_a_at) / Fold change /veh RCAN1 (11760418_a_at) / RFU FAM167A (11723789_a_at) / Fold change /veh FAM167A (11723789_a_at) / RFU FAM26E (11764081_at) / Fold change /veh FAM26E (11764081_at) / RFU ISYNA1 (11749810_s_at) / Fold change /veh ISYNA1 (11749810_s_at) / RFU ACY1 (11761880_at) / Fold change /veh ACY1 (11761880_at) / RFU 11764098_at / Fold change /veh 11764098_at / RFU SAMD14 (11745864_x_at) / Fold change /veh SAMD14 (11745864_x_at) / RFU NPB (11741838_a_at) / Fold change /veh NPB (11741838_a_at) / RFU TMPRSS6 (11731388_a_at) / Fold change /veh TMPRSS6 (11731388_a_at) / RFU KRTAP10-2 (11738614_at) / Fold change /veh KRTAP10-2 (11738614_at) / RFU ARHGAP8 /// PRR5-ARHGAP8 (11727945_x_at) / Fold change /veh ARHGAP8 /// PRR5-ARHGAP8 (11727945_x_at) / RFU KRTAP5-7 /// NADSYN1 (11734609_at) / Fold change /veh KRTAP5-7 /// NADSYN1 (11734609_at) / RFU RASL12 (11751679_a_at) / Fold change /veh RASL12 (11751679_a_at) / RFU CDKN2B (11736163_a_at) / Fold change /veh CDKN2B (11736163_a_at) / RFU PRF1 (11729649_at) / Fold change /veh PRF1 (11729649_at) / RFU, ZNF638 /// ZNF638-IT1 / Fold change vs veh, ZNF638 /// ZNF638-IT1 / RFU, PANK3 / Fold change vs veh, PANK3 / RFU, SH3YL1 / Fold change vs veh, SH3YL1 / RFU, ZEB2 / Fold change vs veh, ZEB2 / RFU, NRIP1 / Fold change vs veh, NRIP1 / RFU, PTTG1IP / Fold change vs veh, PTTG1IP / RFU, CAPN2 / Fold change vs veh, CAPN2 / RFU, MED14 / Fold change vs veh, MED14 / RFU, SNORA58 / Fold change vs veh, SNORA58 / RFU, C1orf63 / Fold change vs veh, C1orf63 / RFU, LRRFIP1 / Fold change vs veh, LRRFIP1 / RFU, NDUFAF7 / Fold change vs veh, NDUFAF7 / RFU, SLC12A2 / Fold change vs veh, SLC12A2 / RFU, IBTK / Fold change vs veh, IBTK / RFU, ESF1 / Fold change vs veh, ESF1 / Fold change vs veh, TMEM50B / RFU, TAOK1 / Fold change vs veh, TAOK1 / RFU, ACBD3 / Fold change vs veh, ACBD3 / RFU, TMA16 / Fold change vs veh, TMA16 / RFU, RWDD3 / Fold change vs veh, RWDD3 / RFU, BCAT1 / Fold change vs veh, BCAT1 / RFU, EDEM3 / Fold change vs veh, EDEM3 / RFU, TMEM33 / Fold change vs veh, TMEM33 / RFU, WDR75 / Fold change vs veh, WDR75 / RFU, AHCTF1 / Fold change vs veh, AHCTF1 / RFU, TFRC / Fold change vs veh, TFRC / RFU, ZDHHC17 / Fold change vs veh, ZDHHC17 / RFU, NOM1 / Fold change vs veh, NOM1 / RFU, ARL8B / Fold change vs veh, ARL8B / RFU, ZBTB11 / Fold change vs veh, ZBTB11 / RFU, TAMM41 / Fold change vs veh, TAMM41 / RFU, KIAA1704 /// LOC100996395 / Fold change vs veh, KIAA1704 /// LOC100996395 / RFU, ING1 / Fold change vs veh, ING1 / RFU, TRMT61B / Fold change vs veh, TRMT61B / RFU, FUBP3 / Fold change vs veh, FUBP3 / RFU, TP53 / Fold change vs veh, TP53 / RFU, TNKS2 / Fold change vs veh, TNKS2 / RFU, ZFP14 / Fold change vs veh, ZFP14 / RFU, ACTR2 / Fold change vs veh, ACTR2 / RFU, PPP3R1 / Fold change vs veh, PPP3R1 / RFU, PIK3R1 / Fold change vs veh, PIK3R1 / RFU, HNRNPA1 / Fold change vs veh, HNRNPA1 / RFU, RNF170 / Fold change vs veh, RNF170 / RFU, ZNF28 / Fold change vs veh, ZNF28 / RFU, RNGTT / Fold change vs veh, RNGTT / RFU, OGT / Fold change vs veh, OGT / RFU, BRD1 / Fold change vs veh, BRD1 / RFU, MARS / Fold change vs veh, MARS / RFU, ZNF655 / Fold change vs veh, ZNF655 / RFU, FAHD1 / Fold change vs veh, FAHD1 / RFU, BDP1 / Fold change vs veh, BDP1 / RFU, LRRCC1 / Fold change vs veh, LRRCC1 / RFU, ARID1A / Fold change vs veh, ARID1A / RFU, ZNF146 / Fold change vs veh, ZNF146 / RFU, ZNF330 / Fold change vs veh, ZNF330 / RFU, GPN3 / Fold change vs veh, GPN3 / RFU, C9orf123 / Fold change vs veh, C9orf123 / RFU, N4BP2L2 / Fold change vs veh, N4BP2L2 / RFU, ARFIP1 / Fold change vs veh, ARFIP1 / RFU, FAM179B / Fold change vs veh, FAM179B / RFU, BCL10 / Fold change vs veh, BCL10 / RFU, UHRF1BP1L / Fold change vs veh, UHRF1BP1L / RFU, BET1 / Fold change vs veh, BET1 / RFU, CNOT2 / Fold change vs veh, CNOT2 / RFU, ZNF268 / Fold change vs veh, ZNF268 / Fold change vs veh, ZNF507 / RFU, DGCR2 / Fold change vs veh, DGCR2 / RFU, WDSUB1 / Fold change vs veh, WDSUB1 / Fold change vs veh, HSP90B1 /// MIR3652 / RFU, ADSS / Fold change vs veh, ADSS / RFU, GK / Fold change vs veh, GK / RFU, ZNF148 / Fold change vs veh, ZNF148 / RFU, TAF9 / Fold change vs veh, TAF9 / RFU, SLC1A5 / Fold change vs veh, SLC1A5 / RFU, SLMO2 / Fold change vs veh, SLMO2 / RFU, ABCC4 / Fold change vs veh, ABCC4 / RFU, LOC101060439 /// RAP1B / Fold change vs veh, LOC101060439 /// RAP1B / RFU, RFX7 / Fold change vs veh, RFX7 / RFU, GTPBP10 / Fold change vs veh, GTPBP10 / RFU, CNEP1R1 / Fold change vs veh, CNEP1R1 / RFU, BIVM-ERCC5 /// ERCC5 / Fold change vs veh, BIVM-ERCC5 /// ERCC5 / RFU, ILF3 / Fold change vs veh, ILF3 / RFU 11762660_at / Fold change /veh 11762660_at / RFU VCAN (11757783_s_at) / Fold change /veh VCAN (11757783_s_at) / RFU DDX43 (11728927_at) / Fold change /veh DDX43 (11728927_at) / RFU KRT8 (11758188_x_at) / Fold change /veh KRT8 (11758188_x_at) / RFU NKD1 (11759106_at) / Fold change /veh NKD1 (11759106_at) / RFU SRD5A1 (11742802_a_at) / Fold change /veh SRD5A1 (11742802_a_at) / RFU TPSAB1 /// TPSB2 (11721975_s_at) / Fold change /veh TPSAB1 /// TPSB2 (11721975_s_at) / RFU GSTM3 (11746129_a_at) / Fold change /veh GSTM3 (11746129_a_at) / RFU IL23R (11737362_x_at) / Fold change /veh IL23R (11737362_x_at) / RFU TMEM51 (11727254_a_at) / Fold change /veh TMEM51 (11727254_a_at) / RFU PIWIL2 (11732686_x_at) / Fold change /veh PIWIL2 (11732686_x_at) / RFU ORM1 (11744905_x_at) / Fold change /veh ORM1 (11744905_x_at) / RFU CCDC152 (11743942_at) / Fold change /veh CCDC152 (11743942_at) / RFU ECM1 (11717891_a_at) / Fold change /veh ECM1 (11717891_a_at) / RFU IL23R (11748794_a_at) / Fold change /veh IL23R (11748794_a_at) / RFU TNFAIP8L3 (11732012_x_at) / Fold change /veh TNFAIP8L3 (11732012_x_at) / RFU MBOAT4 (11741988_at) / Fold change /veh MBOAT4 (11741988_at) / RFU 11764193_at / Fold change /veh 11764193_at / RFU TMEM53 (11763286_at) / Fold change /veh TMEM53 (11763286_at) / RFU MAGEB2 (11727129_at) / Fold change /veh MAGEB2 (11727129_at) / RFU TMEM200A (11744735_a_at) / Fold change /veh TMEM200A (11744735_a_at) / RFU CCDC152 (11751479_a_at) / Fold change /veh CCDC152 (11751479_a_at) / RFU FAM211A (11726209_a_at) / Fold change /veh FAM211A (11726209_a_at) / RFU RGS16 (11746705_a_at) / Fold change /veh RGS16 (11746705_a_at) / RFU VCAN (11755009_s_at) / Fold change /veh VCAN (11755009_s_at) / RFU RHOB (11743442_s_at) / Fold change /veh RHOB (11743442_s_at) / RFU RGS16 (11720943_a_at) / Fold change /veh RGS16 (11720943_a_at) / RFU RGS16 (11720944_at) / Fold change /veh RGS16 (11720944_at) / RFU, VPS4B / Fold change vs veh, VPS4B / RFU, CREB1 / Fold change vs veh, CREB1 / RFU, DNAJC13 / Fold change vs veh, DNAJC13 / RFU, GNAQ / Fold change vs veh, GNAQ / RFU, CDK5R1 / Fold change vs veh, CDK5R1 / RFU, ZRANB3 / Fold change vs veh, ZRANB3 / RFU, CUL4A / Fold change vs veh, CUL4A / RFU, CCNY / Fold change vs veh, CCNY / RFU, UFL1 / Fold change vs veh, UFL1 / RFU, COG3 / Fold change vs veh, COG3 / RFU, DIAPH2 / Fold change vs veh, DIAPH2 / RFU, SKA2 / Fold change vs veh, SKA2 / RFU, AFF3 / Fold change vs veh, AFF3 / RFU, LMF1 / Fold change vs veh, LMF1 / RFU, IPO11 / Fold change vs veh, IPO11 / RFU, DFFB / Fold change vs veh, DFFB / RFU, FOXP1 / Fold change vs veh, FOXP1 / RFU, CARD8 / Fold change vs veh, CARD8 / RFU, STRN3 / Fold change vs veh, STRN3 / RFU, ADK / Fold change vs veh, ADK / RFU, RASSF2 / Fold change vs veh, RASSF2 / RFU, WIPF1 / Fold change vs veh, WIPF1 / RFU, LARP1B / Fold change vs veh, LARP1B / RFU, RASA1 / Fold change vs veh, RASA1 / RFU, RB1 / Fold change vs veh, RB1 / RFU, PPFIA1 / Fold change vs veh, PPFIA1 / RFU, MAT2A / Fold change vs veh, MAT2A / RFU, CCT5 / Fold change vs veh, CCT5 / RFU, WDR92 / Fold change vs veh, WDR92 / RFU, CUX1 / Fold change vs veh, CUX1 / RFU, TTC7A / Fold change vs veh, TTC7A / RFU, TMEM135 / Fold change vs veh, TMEM135 / RFU, DEPTOR / Fold change vs veh, DEPTOR / RFU, CPM / Fold change vs veh, CPM / RFU, DNAJB6 / Fold change vs veh, DNAJB6 / RFU, CACNA2D3 / Fold change vs veh, CACNA2D3 / RFU, DTX4 / Fold change vs veh, DTX4 / RFU, TFCP2 / Fold change vs veh, TFCP2 / RFU, GMCL1 /// GMCL1P1 / Fold change vs veh, GMCL1 /// GMCL1P1 / RFU, AEBP2 / Fold change vs veh, AEBP2 / RFU, SNHG1 /// SNORD22 /// SNORD25 /// SNORD26 /// SNORD27 /// SNORD28 /// SNORD29 /// SNORD31 / Fold change vs veh, SNHG1 /// SNORD22 /// SNORD25 /// SNORD26 /// SNORD27 /// SNORD28 /// SNORD29 /// SNORD31 / Fold change (Aza/veh), C12orf56 (ProbeSet 11735607_a_at) / Fold change (ACY-1035/veh), C12orf56 (ProbeSet 11735607_a_at) / Fold change (Aza/veh), FGFR1OP (ProbeSet 11751329_s_at) / Fold change (ACY-1035/veh), FGFR1OP (ProbeSet 11751329_s_at) / Fold change (Aza/veh), VPS36 (ProbeSet 11739960_a_at) / Fold change (ACY-1035/veh), VPS36 (ProbeSet 11739960_a_at) / RFU SYPL1 (11715823_x_at) / Fold change /veh SYPL1 (11715823_x_at) / RFU IGFBP7 (11715501_s_at) / Fold change /veh IGFBP7 (11715501_s_at) / RFU REEP3 (11722064_at) / Fold change /veh REEP3 (11722064_at) / RFU IGLL1 (11728026_x_at) / Fold change /veh IGLL1 (11728026_x_at): dose or concentration left out as unconfirmed
Conditions: MV-4-11 cells, 48 hours

Nc1ccc(-c2cccs2)cc1NC(=O)c1ccc2c(c1)cc(C1CC1)n2CCN1CCOCC1 [ACY-1035]
RFU LINC00158 (11744669_a_at): 7.93 RFU
